Source: ChEMBL document CHEMBL5036347, “Design of the naphthyl-diarylpyrimidines as potent non-nucleoside reverse transcriptase inhibitors (NNRTIs) via structure-based extension into the entrance channel” (Eur J Med Chem, 2021)

Assays:
[1] = test system: Human immunodeficiency virus 1; test: Anti-HIV activity against HIV-1 IIIB infected in human MT4 cells assessed as reduction in virus-induced cytopathic effect incubated for 5 days by MTT assay; assay type: functional, organism-based; conditions: Human immunodeficiency virus 1, IIIB, MT4, 120 h
[2] = test system: Human immunodeficiency virus 2; test: Anti-HIV activity against HIV2 ROD infected in human MT4 cells assessed as reduction in virus-induced cytopathic effect incubated for 5 days by MTT assay; assay type: functional, organism-based; conditions: Human immunodeficiency virus 2, ROD, MT4, 120 h
[3] = Cytotoxicity against human MT4 cells assessed as reduction in cell viability incubated for 5 days by MTT assay; assay type: cell-based; conditions: human, MT4 cells; time 5 day
[4] = test system: Human immunodeficiency virus 1; test: Antiviral activity against HIV1 harboring reverse transcriptase L100I mutant infected in human MT4 cells assessed as protection against virus-induced cytopathic effect incubated for 5 days by MTT assay; assay type: functional, organism-based; conditions: Human immunodeficiency virus 1, MT4, 120 h
[5] = test system: Human immunodeficiency virus 1; test: Antiviral activity against HIV1 harboring reverse transcriptase K103N mutant infected in human MT4 cells assessed as protection against virus-induced cytopathic effect incubated for 5 days by MTT assay; assay type: functional, organism-based; conditions: Human immunodeficiency virus 1, MT4, 120 h
[6] = test system: Human immunodeficiency virus 1; test: Antiviral activity against HIV1 harboring reverse transcriptase Y181C mutant infected in human MT4 cells assessed as protection against virus-induced cytopathic effect incubated for 5 days by MTT assay; assay type: functional, organism-based; conditions: Human immunodeficiency virus 1, MT4, 120 h
[7] = test system: Human immunodeficiency virus 1; test: Antiviral activity against HIV1 harboring reverse transcriptase Y188L mutant infected in human MT4 cells assessed as protection against virus-induced cytopathic effect incubated for 5 days by MTT assay; assay type: functional, organism-based; conditions: Human immunodeficiency virus 1, MT4, 120 h
[8] = test system: Human immunodeficiency virus 1; test: Antiviral activity against HIV1 harboring reverse transcriptase E138K mutant infected in human MT4 cells assessed as protection against virus-induced cytopathic effect incubated for 5 days by MTT assay; assay type: functional, organism-based; conditions: Human immunodeficiency virus 1, MT4, 120 h
[9] = test system: Human immunodeficiency virus 1; test: Antiviral activity against HIV1 harboring reverse transcriptase F227L/V106A mutant infected in human MT4 cells assessed as protection against virus-induced cytopathic effect incubated for 5 days by MTT assay; assay type: functional, organism-based; conditions: Human immunodeficiency virus 1, MT4, 120 h
[10] = Resistance fold, ratio of EC50 for HIV1 harboring reverse transcriptase Y181C mutant […] to EC50 for wild type HIV1 […]; assay type: functional
[11] = Resistance fold, ratio of EC50 for HIV1 harboring reverse transcriptase L100I mutant […] to EC50 for wild type HIV1 […]; assay type: functional
[12] = Resistance fold, ratio of EC50 for HIV1 harboring reverse transcriptase K103N mutant […] to EC50 for wild type HIV1 […]; assay type: functional
[13] = test system: Human immunodeficiency virus 1; test: Antiviral activity against HIV1 harboring reverse transcriptase K103N/Y181C double mutant infected in human MT4 cells assessed as protection against virus-induced cytopathic effect incubated for 5 days by MTT assay; assay type: functional, organism-based; conditions: Human immunodeficiency virus 1, MT4, 120 h
[14] = Selectivity index, ratio of CC50 for cytotoxicity against human MT4 cells to EC50 of Anti-HIV activity against HIV-1 IIIB infected in human MT4; assay type: toxicity, cell-based; conditions: read-out: Selectivity Index
[15] = Resistance fold, ratio of EC50 for HIV1 harboring reverse transcriptase Y188L mutant […] to EC50 for wild type HIV1 […]; assay type: functional
[16] = Resistance fold, ratio of EC50 for HIV1 harboring reverse transcriptase E138K mutant […] to EC50 for wild type HIV1 […]; assay type: functional
[17] = Resistance fold, ratio of EC50 for HIV1 harboring reverse transcriptase F227L/V106A double mutant […] to EC50 for wild type HIV1 […]; assay type: functional
[18] = Resistance fold, ratio of EC50 for HIV1 harboring reverse transcriptase K103N/Y181C double mutant […] to EC50 for wild type HIV1 […]; assay type: functional
[19] = target: Human immunodeficiency virus type 1 reverse transcriptase (Human immunodeficiency virus 1, UniProt Q72547); test: Inhibition of wild type HIV1 reverse transcriptase using oligo(dT)16 as primer measured after 40 mins by picogreen-dye based spectrofluorimetric analysis

Row | Structure (SMILES) | EC50 [1] [µM] | EC50 [2] [µM] | CC50 at 120 h [3] [µM] | EC50 [4] [µM] | EC50 [5] [µM] | EC50 [6] [µM] | EC50 [7] [µM] | EC50 [8] [µM] | EC50 [9] [µM] | Ratio EC50 [10] | Ratio EC50 [11] | Ratio EC50 [12] | EC50 [13] [µM] | selectivity ratio [14] | Ratio EC50 [15] | Ratio EC50 [16] | Ratio EC50 [17] | Ratio EC50 [18] | IC50 [19] [µM]
1 | CCC(CC)Nc1cc(Oc2c(OC)cc3cc(C#N)ccc3c2OC)nc(Nc2ccc(C#N)cc2)n1 | 0.13 | > 1000 | > 125 | 5.87 | 0.11 | 1.33 | 24.4 | 0.27 | > 1000 | 10 | 46 | 1 | 70.5 | > 1930 | 192 | 2 | >7862 | 555 | 0.6
2 | CCCC(C)Nc1cc(Oc2c(OC)cc3cc(C#N)ccc3c2OC)nc(Nc2ccc(C#N)cc2)n1 (stereo unspecified) | 0.078 | > 1000 | > 125 | 2.17 | 0.064 | 0.66 | 10.9 | 0.25 | > 1000 | 8 | 28 | 1 | 8.77 | > 3140 | 139 | 3 | >12771 | 112 | 0.4
3 | CCC(C)Nc1cc(Oc2c(OC)cc3cc(C#N)ccc3c2OC)nc(Nc2ccc(C#N)cc2)n1 (stereo unspecified) | 0.045 | > 1000 | > 125 | 1.38 | 0.42 | 0.43 | 3.97 | 0.12 | > 1000 | 10 | 31 | 9 | 3.69 | > 5670 | 89 | 3 | >22472 | 83 | 0.26
4 | CCCCCC(C)Nc1cc(Oc2c(OC)cc3cc(C#N)ccc3c2OC)nc(Nc2ccc(C#N)cc2)n1 (stereo unspecified) | 1.54 | > 1000 | > 125 | 157 | 1.33 | 40 | > 1000 | 2.22 | > 1000 | 26 | 102 | 1 | > 1000 | > 151 | >650 | 1 | >649 | >649 | 1.2
5 | CCCNc1cc(Oc2c(OC)cc3cc(C#N)ccc3c2OC)nc(Nc2ccc(C#N)cc2)n1 | 0.017 | > 1000 | > 125 | 0.47 | 0.016 | 0.18 | 1.15 | 0.046 | 65.1 | 11 | 28 | 1 | 1.27 | > 15700 | 68 | 3 | 3827 | 75 | 0.11
6 | CCCCCNc1cc(Oc2c(OC)cc3cc(C#N)ccc3c2OC)nc(Nc2ccc(C#N)cc2)n1 | 0.043 | > 1000 | > 125 | 1.43 | 0.041 | 0.5 | 50.7 | 0.096 | > 1000 | 12 | 33 | 1 | 6.37 | > 5670 | 1171 | 2 | >23095 | 147 | 0.02
7 | COc1cc2cc(C#N)ccc2c(OC)c1Oc1cc(NC(C)(C)C)nc(Nc2ccc(C#N)cc2)n1 | 0.052 | > 1000 | > 125 | 1.89 | 0.075 | 0.65 | 6.51 | 0.18 | > 1000 | 12 | 36 | 1 | 28.5 | > 4830 | 125 | 4 | >19231 | 548 | 0.31
8 | COc1cc2cc(C#N)ccc2c(OC)c1Oc1cc(NCC(C)C)nc(Nc2ccc(C#N)cc2)n1 | 0.035 | > 1000 | > 125 | 127 | 0.11 | 43.6 | 13.3 | 0.13 | > 1000 | 1253 | 3646 | 3 | > 1000 | > 7250 | 383 | 4 | >28736 | >28736 | 0.25
9 | COc1cc2cc(C#N)ccc2c(OC)c1Oc1cc(NCC(C)(C)C)nc(Nc2ccc(C#N)cc2)n1 | 0.085 | > 1000 | > 125 | 8.79 | 0.14 | 2.38 | 112 | 0.31 | > 1000 | 28 | 103 | 2 | 1000 | > 2880 | 1313 | 4 | >11723 | >11723 | 0.51
